Test results taken from patent US9833497B2, “Human originated EGF domain proteins and use of the same” (CHENGDU SOURCEBIO LIMITED-LIABILITY COMPANY, priority 2013, dated 2017).

Experiments:
Assay type in all cases: cell-based
E. coli DH5α = test: Antibacterial activity: MIC and growth curve against E. coli DH5α in 96-well plate; conditions: minimal inhibitory concentration against E. coli DH5α; 96-well plate, 5×10^5 CFU/mL, 37° C., judged after 8 h
How it was run: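 Log-phase DH5α (OD600 about 0.5, 37° C, 185 rpm in LB) was pelleted, resuspended in fresh LB and seeded at 5×10^5 CFU/mL with recombinant protein at 50, 25 and 12.5 μg/mL (two-fold series), in triplicate. Plates were shaken at 175 rpm, 37° C, and OD600 was read every 30 min. MIC was the lowest concentration with no growth.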

E. coli BL21 = test: MIC against Gram-negative bacteria: E. coli BL21; conditions: for MIC against E. coli BL21 / MIC (μg/mL) E. coli BL21: 96-well plate, 5×10^5 CFU/mL, 37° C., 10 h
How it was run: (§1)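 Antibacterial activity of purified human EGF domain proteins: two-fold concentration series, triplicate wells, LB broth, 5×10^5 CFU/mL bacteria, 37° C shaking incubation. The lowest concentration without growth defines the MIC.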

Pseudomonas aeruginosa = test: MIC against Gram-negative bacteria: Pseudomonas aeruginosa; conditions: for MIC against P. aeruginosa / MIC (μg/mL) P. aeruginosa: 96-well plate, 5×10^5 CFU/mL, 37° C., 10 h
How it was run: as §1

Klebsiella pneumonia = test: MIC against Gram-negative bacteria: Klebsiella pneumonia; conditions: for MIC against K. pneumonia / MIC (μg/mL) K. pneumonia: 96-well plate, 5×10^5 CFU/mL, 37° C., 10 h
How it was run: as §1

Enterobacter cloacae = test: MIC against Gram-negative bacteria: Enterobacter cloacae; conditions: for MIC against E. cloacae / MIC (μg/mL) E. cloacae: 96-well plate, 5×10^5 CFU/mL, 37° C., 10 h
How it was run: as §1

Aeromonas hydrophila = test: MIC against Gram-negative bacteria: Aeromonas hydrophila; conditions: for MIC against A. hydrophila / MIC (μg/mL) A. hydrophila: 96-well plate, 5×10^5 CFU/mL, 37° C., 10 h
How it was run: as §1

Citrobacter diversus = test: MIC against Gram-negative bacteria: Citrobacter diversus; conditions: for MIC against C. diversus / MIC (μg/mL) C. diversus: 96-well plate, 5×10^5 CFU/mL, 37° C., 10 h
How it was run: as §1

Moraxella catarrhalis = test: MIC against Gram-negative bacteria: Moraxella catarrhalis; conditions: for MIC against M. catarrhalis / MIC (μg/mL) M. catarrhalis: 96-well plate, 5×10^5 CFU/mL, 37° C., 10 h
How it was run: as §1

Proteus mirabilis = test: MIC against Gram-negative bacteria: Proteus mirabilis; conditions: for MIC against P. mirabilis / MIC (μg/mL) P. mirabilis: 96-well plate, 5×10^5 CFU/mL, 37° C., 10 h
How it was run: as §1

Proteus vulgaris = test: MIC against Gram-negative bacteria: Proteus vulgaris; conditions: for MIC against P. vulgaris / MIC (μg/mL) P. vulgaris: 96-well plate, 5×10^5 CFU/mL, 37° C., 10 h
How it was run: as §1

Serratia marcescens = test: MIC against Gram-negative bacteria: Serratia marcescens; conditions: for MIC against S. marcescens / MIC (μg/mL) S. marcescens: 96-well plate, 5×10^5 CFU/mL, 37° C., 10 h
How it was run: as §1

Substance	MIC (E. coli DH5α) [µg/mL]	MIC (μg/mL) E. coli BL21 (E. coli BL21; E. coli BL21) [µg/mL]	MIC (μg/mL) P. aeruginosa (Pseudomonas aeruginosa; Pseudomonas aeruginosa) [µg/mL]	MIC (μg/mL) K. pneumonia (Klebsiella pneumonia; Klebsiella pneumonia) [µg/mL]	MIC (μg/mL) E. cloacae (Enterobacter cloacae; Enterobacter cloacae) [µg/mL]	MIC (μg/mL) A. hydrophila (Aeromonas hydrophila; Aeromonas hydrophila) [µg/mL]	MIC (μg/mL) C. diversus (Citrobacter diversus; Citrobacter diversus) [µg/mL]	MIC (μg/mL) M. catarrhalis (Moraxella catarrhalis; Moraxella catarrhalis) [µg/mL]	MIC (μg/mL) P. mirabilis (Proteus mirabilis; Proteus mirabilis) [µg/mL]	MIC (μg/mL) P. vulgaris (Proteus vulgaris; Proteus vulgaris) [µg/mL]	MIC (μg/mL) S. marcescens (Serratia marcescens; Serratia marcescens) [µg/mL]	MIC against E. coli BL21 (E. coli BL21; E. coli BL21) [µg/mL]	MIC against P. aeruginosa (Pseudomonas aeruginosa; Pseudomonas aeruginosa) [µg/mL]	MIC against K. pneumonia (Klebsiella pneumonia; Klebsiella pneumonia) [µg/mL]	MIC against E. cloacae (Enterobacter cloacae; Enterobacter cloacae) [µg/mL]	MIC against A. hydrophila (Aeromonas hydrophila; Aeromonas hydrophila) [µg/mL]	MIC against C. diversus (Citrobacter diversus; Citrobacter diversus) [µg/mL]	MIC against M. catarrhalis (Moraxella catarrhalis; Moraxella catarrhalis) [µg/mL]	MIC against P. mirabilis (Proteus mirabilis; Proteus mirabilis) [µg/mL]	MIC against P. vulgaris (Proteus vulgaris; Proteus vulgaris) [µg/mL]	other results
PRT555 (CDCSAAGTQGNACRKDPRVGRCLCKPNFQGTHCELCAPGFYGPGCQP; listed as Homo sapiens)	50	–	–	–	–	–	–	–	–	–	–	–	–	–	–	–	–	–	–	–	MIC against E. coli BL21 (E. coli BL21): 25 µg/mL; MIC against P. aeruginosa (Pseudomonas aeruginosa): 12.5 µg/mL; MIC against K. pneumonia (Klebsiella pneumonia): 25 µg/mL; MIC against E. cloacae (Enterobacter cloacae): 50 µg/mL; MIC against A. hydrophila (Aeromonas hydrophila): 25 µg/mL; MIC against C. diversus (Citrobacter diversus): 12.5 µg/mL; MIC against M. catarrhalis (Moraxella catarrhalis): 25 µg/mL; MIC against P. mirabilis (Proteus mirabilis): 50 µg/mL; MIC against P. vulgaris (Proteus vulgaris): 25 µg/mL; MIC against S. marcescens (Serratia marcescens): 12.5 µg/mL
PRT13 (PARSCAEEPCGAGTCKETEGHVICLCPPGYTGEHCN; listed as Homo sapiens)	25	12.5	12.5	25	12.5	12.5	25	12.5	50	25	12.5	–	–	–	–	–	–	–	–	–	–
PRT1243 (FGESCEQQCPHCRHGEACEPDTGHCQRCDPGWLGPRCE; listed as Homo sapiens)	12.5	–	–	–	–	–	–	–	–	–	–	50	12.5	50	12.5	50	12.5	25	50	25	MIC against S. marcescens (Serratia marcescens; Serratia marcescens): 12.5 µg/mL
PRT1497 (KPVCEPGCGAHGTCHEPNKCQCQEGWHGRHCN; listed as Homo sapiens)	50	25	12.5	50	25	12.5	25	50	12.5	50	12.5	–	–	–	–	–	–	–	–	–	–
PRT1335 (MTDICKSDNPCHRNANCTTVAPGRTECICQKGYVGDGLTCY; listed as Homo sapiens)	50	–	–	–	–	–	–	–	–	–	–	12.5	50	12.5	50	12.5	25	50	25	12.5	MIC against S. marcescens (Serratia marcescens; Serratia marcescens): 50 µg/mL
PRT978 (DVDECASQPCQHGGSCIDLVARYLCSCPPGTLGVLCE; listed as Homo sapiens)	12.5	–	–	–	–	–	–	–	–	–	–	–	–	–	–	–	–	–	–	–	MIC (E. coli BL21; E. coli BL21, 10 h cultivation at 37° C.): 50 µg/mL; MIC (Pseudomonas aeruginosa; P. aeruginosa, 10 h cultivation at 37° C.): 12.5 µg/mL; MIC (Klebsiella pneumonia; K. pneumonia, 10 h cultivation at 37° C.): 50 µg/mL; MIC (Enterobacter cloacae; E. cloacae, 10 h cultivation at 37° C.): 12.5 µg/mL; MIC (Aeromonas hydrophila; A. hydrophila, 10 h cultivation at 37° C.): 25 µg/mL; MIC (Citrobacter diversus; C. diversus, 10 h cultivation at 37° C.): 50 µg/mL; MIC (Moraxella catarrhalis; M. catarrhalis, 10 h cultivation at 37° C.): 12.5 µg/mL; MIC (Proteus mirabilis; P. mirabilis, 10 h cultivation at 37° C.): 25 µg/mL; MIC (Proteus vulgaris; P. vulgaris, 10 h cultivation at 37° C.): 50 µg/mL; MIC (Serratia marcescens; S. marcescens, 10 h cultivation at 37° C.): 12.5 µg/mL
